From patent publication EP3454861B1, “BENZOXAZINE OR QUINAZOLINE DERIVATIVES FOR USE IN THE TREATMENT OF ALZHEIMER'S DISEASE” (Biocodex, priority 2016, dated 2017)

Tests used:
protéine Tau = assay: Tau hyperphosphorylation in cortical neurons after Aβ1-42; format: cell-based, rats; details: Rattus norvegicus, Cortical neurone, Aβ1-42 2,5 µM, 16 h (Aβ1-42 alone 183%), read-out: hyperphosphorylation de Tau
Protocol: Des neurones corticaux de rats sont mis en culture comme dans la méthode décrite par Singer (1999) J. Neurosci. 19:2455-2463. Des rats femelles enceintes de 15 jours sont tuées par dislocation des cervicales (Rats Wistar, Janvier) et le fœtus est retiré de l'utérus. Les cortex sont prélevés et placés dans un milieu glacé de Leibovitz (L15, Panbiotech, Réf : P04-27055, lot : 9310614) contenant 2% de pénicilline (10 000 U/ml) et de streptomycine (10 mg/ml) (PS, Panbiotec, Réf : P06-07100, lot : 48101114) et 1% de sérum-albumine bovine (BSA, Panbiotech, Réf : P06-1391100, lot : H140603). Les cortex sont dissociés par trypsination (0,05% Panbiotech, Réf : P10-023100, lot : 5890314) pendant 20 minutes à 37°C. La réaction est stoppée par addition d'un milieu Eagle modifié de Dulbecco (DMEM, Panbiotech, réf P04-03600, lot : 9670913) contenant de la DNase I grade Il (0,1 mg/ml Panbiotech, Réf : P60-37780100, lot : H140508) et 10 % de sérum de veau fœtal (FCS, Invitrogen, Réf : 10270 à 098, lot : 41Q4120K). Les cellules sont dissociées mécaniquement par 3 passages à travers une pipette de 10 ml. Les cellules sont ensuite centrifugées à 515 g pendant 10 minutes à 4°C. Le surnageant est éliminé et les cellules sont remises en suspension dans un milieu de culture Neurobasal (Nb, Invitrogen, Réf : 21103, lot : 1608692) supplémenté avec 2% de B27 (Invitrogen, Réf : 17504, lot : 1589889), 2 mM de L-glutamine (Panbiotech, Réf : P04-80100, lot : 6620314), 2% de la solution PS et 10 ng/ml de facteur neurotrophique dérivé du cerveau (BDNF, PanBiotech, Réf : CB-1115002, lot : 4810114). Les cellules sont ensemencées à une densité de 30 000 cellules/puits dans des plaques de 96 puits pré-enduites de poly-L-lysine (10 ng/ml, Greiner Réf : 655930, lot : E14021HD) et cultivées à 37 °C dans une atmosphère humidifiée avec 95% d'air et 5% de CO2 pour l'évaluation de la survie des neurones (analyse de MAP2 par immuno-coloration) (6 puits/condition, 1 culture).
La préparation du peptide amyloïde β1-42 (Aβ1-42) est réalisée en suivant la procédure par Callizot et al. (2013) Neurosci. Res. 91:706-16. […]

neurones corticaux = assay: Oxidative stress (MetO-positive neurons) in cortical neurons after Aβ1-42; format: cell-based, rats; details: Rattus norvegicus, Cortical neurone, Aβ1-42 1,25 µM, 4 h (Aβ1-42 alone 136.98%), read-out: nombre de neurones positifs à MetO
Protocol: Des neurones corticaux de rats sont mis en culture comme dans la méthode décrite par Singer (1999) J. Neurosci. 19:2455-2463. Des rats femelles enceintes de 15 jours sont tuées par dislocation des cervicales (Rats Wistar, Janvier) et le fœtus est retiré de l'utérus. Les cortex sont prélevés et placés dans un milieu glacé de Leibovitz (L15, Panbiotech, Réf : P04-27055, lot : 9310614) contenant 2% de pénicilline (10 000 U/ml) et de streptomycine (10 mg/ml) (PS, Panbiotec, Réf : P06-07100, lot : 48101114) et 1% de sérum-albumine bovine (BSA, Panbiotech, Réf : P06-1391100, lot : H140603). Les cortex sont dissociés par trypsination (0,05% Panbiotech, Réf : P10-023100, lot : 5890314) pendant 20 minutes à 37°C. La réaction est stoppée par addition d'un milieu Eagle modifié de Dulbecco (DMEM, Panbiotech, réf P04-03600, lot : 9670913) contenant de la DNase I grade Il (0,1 mg/ml Panbiotech, Réf : P60-37780100, lot : H140508) et 10 % de sérum de veau fœtal (FCS, Invitrogen, Réf : 10270 à 098, lot : 41Q4120K). Les cellules sont dissociées mécaniquement par 3 passages à travers une pipette de 10 ml. Les cellules sont ensuite centrifugées à 515 g pendant 10 minutes à 4°C. […]

## CCNC1=Nc2ccc(Cl)cc2C(C)(c2ccccc2)O1 (centres unmarked) [Etifoxine, chlorhydratede 6-chloro-2-éthylamino-4-méthyl-4-phényl-4H-[3,1]benzoxazine]
protéine Tau; étifoxine 1 µM
  activity at 1 µM: 114%
protéine Tau; étifoxine 3 µM
  activity at 3 µM: 104%
protéine Tau; étifoxine 10 µM
  activity at 10 µM: 97.4%
Neurones corticaux; étifoxine 3 µM
  activity at 3 µM: 108%
Neurones corticaux; étifoxine 10 µM
  activity at 10 µM: 103%
